Reference: BigSolDB 2.1

O=C(O)c1cccc(O)c1
solubility (mole fraction)
Settings | 278.15 K | 283.15 K | 288.15 K | 293.15 K | 298.15 K | 303.15 K | 308.15 K | 313.15 K | 318.15 K | 323.15 K
in acetone | 0.101 | 0.107 | 0.111 | 0.116 | 0.122 | 0.128 | 0.134 | 0.142 | 0.151 | 0.159
in acetonitrile | 0.00646 | 0.00759 | 0.0103 | 0.0116 | 0.0132 | 0.0155 | 0.017 | 0.0199 | 0.0228 | 0.0262
in ethanol | 0.0936 | 0.0968 | 0.101 | 0.106 | 0.112 | 0.116 | 0.121 | 0.127 | 0.134 | 0.147
in ethyl acetate | 0.0377 | 0.041 | 0.0441 | 0.0486 | 0.0534 | 0.0565 | 0.0607 | 0.0682 | 0.0742 | 0.0764
in ethylene glycol | 0.0804 | 0.0829 | 0.0847 | 0.0883 | 0.0959 | 0.102 | 0.109 | 0.116 | 0.124 | 0.136
in isopropanol | 0.0984 | 0.104 | 0.109 | 0.114 | 0.121 | 0.127 | 0.134 | 0.14 | 0.148 | 0.155
in isopropyl acetate | 0.0305 | 0.0337 | 0.0365 | 0.0383 | 0.043 | 0.0465 | 0.0507 | 0.0552 | 0.059 | 0.0618
in methanol | 0.0815 | 0.0856 | 0.0895 | 0.0943 | 0.0995 | 0.105 | 0.11 | 0.117 | 0.124 | 0.13
in methyl acetate | 0.0388 | 0.0435 | 0.048 | 0.0502 | 0.0549 | 0.0577 | 0.0631 | 0.0691 | 0.0764 | 0.0808
in n-butanol | 0.0772 | 0.0831 | 0.0857 | 0.0919 | 0.0957 | 0.102 | 0.109 | 0.115 | 0.12 | 0.125
in n-butyl acetate | 0.0361 | 0.0397 | 0.043 | 0.0459 | 0.0486 | 0.0526 | 0.0564 | 0.0611 | 0.0661 | 0.0693
in n-pentanol | 0.0774 | 0.0815 | 0.0852 | 0.0902 | 0.0951 | 0.101 | 0.106 | 0.113 | 0.118 | 0.125
in n-propanol | 0.0827 | 0.0878 | 0.0949 | 0.0975 | 0.101 | 0.108 | 0.114 | 0.121 | 0.128 | 0.133
in n-propyl acetate | 0.0379 | 0.0434 | 0.0449 | 0.047 | 0.0513 | 0.0569 | 0.061 | 0.0651 | 0.0711 | 0.0769
